In patent US20210353573A1, “A SOFT-GEL CAPSULE FORMULATION, METHOD OF MANUFACTURE AND USE THEREOF” (Chanelle Pharmaceuticals Manufacturing Ltd., priority 2018, published 2021):

Experiment: Excipient compatibility studies (glycerol)
Assay type: physicochemical
Details: mixture with glycerol
Method: Various studies were carried out to determine an appropriate capsule shell formulation.

ibuprofen lysine [ibuprofen lysinate]
Compatibility with glycerol (colour change indicating degradation): turned brownish
